Experimental findings from US7863251B2, “Hepatic stellate cell specific promoter and uses thereof” (Agency for Science, Technology and Research, priority 2005, dated 2011) are described below.

Data set [1] deals with endogenous GFAP mRNA in T6/lacZ/C1 cells. Put plainly: Real-time RT-PCR for endogenous rat GFAP mRNA in T6/lacZ/C1 cells. The class given is cell-based. To be noted: TGF-β1 1 ng/ml. On the procedure: Total RNA was reverse transcribed to cDNA using Taqman's reverse transcription reagent (Cat. # N808-0234A total of […] of RNA in 7.7 μl nuclease-free water was added to 2 μl 10× reverse transcriptase buffer, 4.4 μl 25 mM magnesium chloride, 4 μl deoxyNTP mixtures, 1 μl random hexamers, 0.4 μl RNase inhibitor and 0.5 μl reverse transcriptase (50 U/μl) in a final reaction volume of 20 μl. The reaction was performed for 10 min at 25° C. (annealing), 30 min at 48° C. (cDNA synthesis) and 5 min at 95° C. (enzyme denaturation).
Real-time quantitative PCR was carried out with an ABI 7500 Real Time PCR System (Applied Biosystems, CA, USA). One microliter of sample cDNA was used in each PCR reaction, with the housekeeping β-actin gene as a reference for normalization. The primers and probes for rat β-actin and GFAP were purchased from Taqman's assay-on-demand database. The PCR reaction was performed under a default profile consisting of 50° C. for 2 min (UNG activation), 95° C. for 10 min (enzyme denaturation) and 40 cycles of amplification (denaturation 15 seconds, annealing and extension 60 seconds).
Relative quantitation of the target mRNA was calculated using the comparative threshold cycle (CT) methods as described in the User Bulletin #2 (ABI Prism 7700 Sequence Detection System). CT indicates the fractional cycle number at which the amount of amplified target reaches a fixed threshold within the linear phase of gene amplification. ΔCT, which reflects the difference between CT target and CT β-actin, is inversely correlated to the abundance of mRNA transcripts in the samples. ΔCT for each sample was normalized against control experiment or calibrator and expressed as ΔΔCT. Relative quantitation is given by 2^−ΔΔCT to express the up-regulation or down-regulation of the target gene under the treatments compared to the control.
It was known that GFAP, along with desmin, SMAA, and vimentin, was expressed in the clonal T6 cells (Vogel et al. (2000), J Lipid Res. 41(6):882). Naturally, the endogenous GFAP should be expressed in the T6/lacZ/C1 cells as well. In order to investigate how the endogenous GFAP expression is regulated by TGF-β1 in the T6/lacZ/C1 cells during different time course, we quantified rat GFAP mRNA level using a real-time RT-PCR method. Cells were similarly grown and treated with TGF-β1 (1 ng/ml) for various times (0, 2, 8, 16, 24, 48 and 72 hours), as described for the enzymatic assay experiments above. Total RNA was isolated from different cells and quantified as described in Materials and Methods, and the results were depicted in FIG. 11.
On the technique in general: In qPCR the cycle at which signal appears reflects the starting amount.

The subject of data set [2] is T6/lacZ/C1 cells (2.2 kb hGFAP-lacZ transgene). Nature of the data set: Quantitative solution assay of β-galactosidase activity in T6/lacZ/C1 cell extracts. The class given is cell-based, rat. As for the experimental part:
To quantify the β-galactosidase activity in cell extracts reported in FIGS. 4 to 10, an enzyme assay kit (E2000, Promega, Wis., USA) was used to measure the specific activity of β-galactosidase, according to the manufacturer's instructions in a 96-well format. Briefly, the cells were washed twice with 1×PBS buffer (pH7.4), lysed for 15 minutes at room temperature with the reporter lysis buffer, and harvested using a cell scraper. The total cell extracts were appropriately diluted (5-10 fold), and assayed for the enzyme activity. The specific β-galactosidase activity was expressed in milliunit per milliliter (mU/ml) using a standard curve established from the β-galactosidase standard (provided with the kit). The protein concentration was measured with a BCA protein assay kit (Pierce, Ill., USA), and used to further convert the specific β-galactosidase activity from mU/ml to mU/μg total cellular protein. Six independent experiments were performed for each time and concentration data point.
(§1) Cells were seeded into 12-well plates in full DMEM and 500 μg/ml Zeocin. Twelve hours prior to the cytokine treatment, medium was changed so that the cells were allowed to grow in low serum (0.5% FBS) DMEM. The cells at a confluence of 70-80% were incubated with various concentrations (0, 0.1, 1 and 10 […]) of recombinant human TGF-β1, PDGF-BB (BioVision, CA, USA) and 0, 0.1, 1 and 10 μg/ml lipopolysaccharide (LPS E. coli, Sigma) respectively for 0, 2, 8, 16, 24, 48 and 72 hours before they were harvested for β-galactosidase activity assay and real-time RT-PCR GFAP assay.
A β-galactosidase activity assay kit (Promega, Wis., USA) was used to measure transgene expression level in the T6/lacZ/C1 clone, using the nontransfected T6 as a negative basal control. When grown in the full DMEM medium to 70-80% confluence, the T6/lacZ/C1 cells yielded an average reading of approximately 0.5 mU/μg, about five times of that in normal T6 cells. The basal reading in the T6 cells was not influenced by the addition of cytokines or LPS (data not shown). For comparison purpose, the β-galactosidase activity in a randomly selected C6 clone containing the 2.2 kb hGFAP-lacZ transgene (designated as C6/lacZ/C4) was measured to have an activity of about 2 mU/μg, […] of that in the T6/lacZ/C1 cells. When incubated with TGF-β1 (0 to 10 ng/ml), the C6/lacZ/C4 cells yielded an induction dynamics of 130 to 200% of the untreated control.
To quantify specific transgene response to TGF-β1, we first set up an experiment to assess possible effects that serum concentration and culture duration may have on the transgene expression. T6/lacZ/C1 cells were initially grown in DMEM with high serum (10% FBS), and then some of the cells were starved with a DMEM with low serum (0.5% FBS) for 12 hours prior to the addition of TGF-β1 (1 ng/ml). After incubation for various times (0, 2, 8, 24, 48 and 72 hours), cells were harvested for β-galactosidase activity assay. […] After 72 hours, the level slipped to 58% of the value at 0 hour (P<0.001). The assay results were depicted in FIG. 8.
To further dissect the TGF-β1 contribution to the transgene induction, we treated T6/lacZ/C1 cells grown in low serum with various concentrations of TGF-β1 (0, 0.1, 1, 10 ng/ml) and assayed the enzymatic activity for three time points (24, 48 and 72 hours). The assay results were plotted in FIG. 9. […] When the non-treatment groups were normalized to 1 and the magnitude of induction were plotted for the 10 ng/ml treatment groups at all three time points (FIG. 10), a trend of increasing induction with time was apparent.

Data set [3] has the same test system. Put plainly: X-gal staining of T6/lacZ/C1 cells treated with TGF-β1, PDGF-BB and LPS. In kind it is cell-based, rat. To be noted: for X-gal blue staining (β-galactosidase) compared to the untreated: 0.1 to 10 ng/ml, 72 hours, X-gal one hour; for expression of a transgene operably coupled to a hGFAP promoter in HSC cell culture: summary statement. As for the experimental part: A lacZ reporter assay kit for cell staining (InvivoGen, CA, USA) was used to detect the reporter gene activity in both stable and transient transfectants. Development of the blue end product was monitored at different time intervals (15, 30, 60, 90, and 120 minutes). The staining results were documented with a digital camera (DP12) attached to an Olympus inverted bright field microscope (IX51).
as §1
To determine possible induction of GFAP-lacZ expression by molecules with profibrotic and proinflammatory properties in activated HSC the T6/lacZ/C1 cells were treated with TGF-β1, PDGF-BB and LPS respectively at various concentrations (0, 0.1, 1 and 10 ng/ml) in the full DMEM medium for 72 hours. The cells were then stained with X-gal for one hour and photographed. […] In order to obtain truly quantitative data, a solution assay was employed to measure possible up-regulation of β-galactosidase activity by TGF-β1 in experiments below.

On to “TGF-β1: recombinant human TGF-β1 (BioVision), pro-fibrotic factor”, for which the “GFAP mRNA level relative to basal level (normalized to 1) at 0 hour” value was determined as 0.5 fold in data set [1] (16 hour (P<0.005)), 7 fold in data set [1] (48 hours) and 8.5 fold in data set [1] (72 hours). The “GFAP mRNA level relative to basal level at 0 hour” value in data set [1] (first 24 hours) is reported as “remained steady”. For the same molecule, the “induction of β-galactosidase activity vs non-induced” value in data set [2] (1 ng/ml TGF-β1, low serum, 24 hours (P<0.05)) is given as “induction was seen”; in data set [2] (10 ng/ml TGF-β1, low serum, 24, 48 and 72 hours (P<0.001)), “Significant induction”. For the same molecule, the “absolute enzymatic activity (β-galactosidase)” value in data set [2] (10 ng/ml TGF-β1, 72 hours) came out at 0.43 mU/μg. The “fold induction of β-galactosidase specific activity, non-treatment normalized to 1” value in data set [2] (10 ng/ml TGF-β1, 72 hours) is given as “nearly two fold”. For the same molecule, the transgene expression level result in data set [2] (TGF-β1 1 ng/ml, 0.5% FBS, 2 and 8 hours) is listed as “rapidly elevated”; in data set [2] (TGF-β1 1 ng/ml, 0.5% FBS, 48 hours) it was “dropped to the same level as at 0 hour”. Also, the “β-galactosidase specific activity at peak” value in data set [2] (TGF-β1 1 ng/ml, 0.5% FBS, 24 hour) was 0.52 mU/μg. The “transgene expression level, % of the value at 0 hour” value in data set [2] (TGF-β1 1 ng/ml, 0.5% FBS, 72 hours) was determined as 58%. Besides, the “X-gal blue staining (β-galactosidase) compared to the untreated” value in data set [3] is “more intense blue staining”. The “expression of a transgene operably coupled to a hGFAP promoter in HSC cell culture” value in data set [3] was “induced in a dose-dependent manner”.

B1: PDGF-BB: recombinant human PDGF-BB (BioVision), pro-proliferative factor (protein, UniProt P01127 82-190, looked up)
Platelet-derived growth …: SLGSLTIAEPAMIAECKTRTEVFEISRRLIDRTNANFLVWPPCVEVQRCSGCCNNRNVQCRPTQVQLRPVQVRKIEIVRKKPIFKKATVTLEDHLACKCETVAAARPVT
On to B1, for which, in data set [3], the “X-gal blue staining (β-galactosidase) compared to the untreated” value is recorded as “less pronounced response” and the “expression of a transgene operably coupled to a hGFAP promoter in HSC cell culture” value is on record as “induced in a dose-dependent manner”.
